{"source": "patent US8495760B2", "about": "“Atomic force microscope manipulation of living cells” (The Board of Trustees of the Leland Stanford Junior …, priority 2010, dated 2013)", "key": {"[1]": {"system": "hESC-CM", "assay": "AFM measurement of beat force and beat rate of solitary hESC-derived cardiomyocytes", "format": "cell-based, human", "excerpt": "(§1) In step 1441, the nanoscale tip of the microscale cantilever of the AFM is controlled to apply gentle pressure to a location on the cardiomyocyte. […] In experimental embodiments described in more detail below, one or more cardiomyocytes were gently contacted by the cantilever tip with 100 pN of force, producing a typical cellular indentation of about 200 nm to about 500 nm. In various embodiments the contact force falls in a range from about 0.05 to about 1 nN. Thus, in some embodiments, a method includes operating a controller for the microscale cantilever to cause the nanoscale tip to contact the cardiomyocyte at a predetermined pressure.\n(§2) In step 1443, the indentation is measured and the vertical deflection feedback is turned off to allow the cantilever to move with the contractions of the beating cardiomyocyte. […]\n(§3) In step 1445, the time history of vertical deflection of the cantilever at the location on the cell is measured and recorded. FIG. 15 is a graph 1500 that illustrates an example measured force time series when the AFM cantilever interacts with the living cardiomyocyte, according to an embodiment. […]\n(§4) In step 1447, beat characteristics of the cell are determined. For example, the beat force, duration (width) and rate (frequency) are determined based on the time history of vertical deflection in trace 1510. […]"}, "[2]": {"system": "iPSC-CM", "assay": "AFM measurement of beat force and beat rate of solitary iPSC-derived cardiomyocytes", "format": "cell-based, human", "excerpt": "as §1, §2, §3, §4"}}}
{"smiles": "NC[C@H](O)c1ccc(O)c(O)c1", "note": "[norepinephrine, 4-[(1R)-2-amino-1-hydroxyethyl]benzene-1,2-diol]", "values": [{"measurement": "effect on the beat rate", "setting": "[1]; hESC-CM after treatment with norepinephrine 100 μmol/L", "result": "minimal effect"}, {"measurement": "contraction force (beat force) after treatment", "setting": "[1]; solitary hESC-CM, norepinephrine 100 μmol/L, immediately following treatment, before treatment 0.097±0.019 nN, p<0.001", "result": "0.31±0.03", "unit": "nN"}, {"measurement": "beats faster than a cutoff of 1.7 beats/s", "setting": "[2]; iPSC-CM after applying NE 100 μmol/L, 6% prior to treatment", "result": 21, "unit": "%"}, {"measurement": "contraction force (beat force) after treatment", "setting": "[2]; solitary iPSC-CM, norepinephrine 100 μmol/L, immediately following treatment, before treatment 0.18±0.06 nN, p<0.001", "result": "0.48±0.23", "unit": "nN"}]}
